Test results published in patent US20100152261A1 (MITSUBISHI TANABE PHARMA CORPORATION, priority 2005, published 2010).
Read-outs that look alike come from different tables or passages of the source.

What was measured:
muscarinic M3 receptor = molecular target: T1, muscarinic M3 receptor (Cavia porcellus, UniProt H0W1Z3); assay: Muscarinic M3 antagonistic action in isolated guinea pig trachea (carbachol-induced contraction, Schild method); assay type: cell-based; conditions: compound applied 15 minutes before carbachol
T1 construct: trachea was excised, and cut at every two tracheal cartilages to prepare tissue specimens; from tissue; host or cells: isolated guinea pig trachea (male Hartley)
Description: Muscarinic M3 Antagonistic Action in Isolated Guinea Pig Trachea
Male Hartley guinea pigs (350 to 600 g) were sacrificed by bleeding, and trachea was excised, and cut at every two tracheal cartilages to prepare tissue specimens. Each tissue specimen was kept warm at 37° C., suspended with a resting tension of 1 g in a 5-mL Magnus bath filled with a Krebs carbonate buffer containing indomethacin (1 μM) bubbled with 95% O2/5% CO2, and left for 60 minutes as a stabilization period. […] After the measurement, the tissue specimen was immediately washed, and left for 60 minutes as a stabilization period before the next contraction reaction, and the tissue specimen of which EC50 for the carbachol-induced contraction reaction was stabilized was considered as a control. Each test compound was applied 15 minutes before the addition of carbachol. The affinity (pA2) of the test compound was obtained by the Schild method (Arunlakshana, O. and Schild, H. O., Brit. J. Pharmacol., 1959, 14, 48-58).

muscarinic M2 receptor = molecular target: T2, muscarinic M2 receptor (Cavia porcellus, UniProt H0VRN8); assay: Muscarinic M2 antagonistic action in isolated guinea pig left atrium (carbachol-induced relaxation, Schild method); assay type: cell-based; conditions: compound applied 30 minutes before carbachol
T2 construct: left atria were excised to prepare tissue specimens; from tissue; host or cells: isolated guinea pig left atrium (male Hartley)
T2 sequence (H0VRN8 1-466): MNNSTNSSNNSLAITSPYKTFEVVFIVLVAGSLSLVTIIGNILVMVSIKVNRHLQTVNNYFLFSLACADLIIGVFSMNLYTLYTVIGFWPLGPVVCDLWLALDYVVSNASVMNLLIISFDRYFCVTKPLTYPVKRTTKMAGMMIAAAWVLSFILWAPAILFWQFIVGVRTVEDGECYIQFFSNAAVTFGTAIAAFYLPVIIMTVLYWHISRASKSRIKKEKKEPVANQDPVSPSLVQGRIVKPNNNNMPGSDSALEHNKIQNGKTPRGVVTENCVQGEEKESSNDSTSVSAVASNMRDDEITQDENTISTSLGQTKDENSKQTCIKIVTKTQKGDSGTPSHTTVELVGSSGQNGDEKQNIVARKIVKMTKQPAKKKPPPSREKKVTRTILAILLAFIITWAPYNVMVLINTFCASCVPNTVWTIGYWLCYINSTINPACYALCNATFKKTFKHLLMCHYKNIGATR
Description: Muscarinic M2 Antagonistic Action in Isolated Guinea Pig Left Atrium […] Each tissue specimen was kept warm at 37° C., suspended with a resting tension of 0.5 g in a 5-mL Magnus bath filled with a Krebs carbonate buffer bubbled with 95% O2/5% CO2. Then, contraction evoked by field electrical stimulation (4 Hz, 2 msec, 1.5×threshold potential) was measured. After a stabilization period of 60 minutes, carbachol-induced relaxation was isometrically measured and recorded by the cumulative method from 10^−8 M with an interval of 90 seconds for one concentration in an equal ratio of 3. After the measurement, the tissue specimen was immediately washed, and left for 45 minutes as a stabilization period before the next observation. The tissue specimen of which EC50 for the carbachol-induced relaxation was stabilized was considered as a control. Each test compound was applied 30 minutes before the addition of carbachol. The affinity (pA2) of the test compound was obtained in the same manner as in the case of the trachea.

[1] = isolated guinea pig left atrium
[2] = pA2 Trachea M3, isolated guinea pig trachea
[3] = pA2 Left atrium M2, isolated guinea pig left atrium
[4] = isolated guinea pig trachea, read-out: pA2 Trachea M3 (converted)
[5] = isolated guinea pig left atrium, read-out: pA2 Left atrium M2 (converted)

T1 sequence (H0W1Z3 1-590): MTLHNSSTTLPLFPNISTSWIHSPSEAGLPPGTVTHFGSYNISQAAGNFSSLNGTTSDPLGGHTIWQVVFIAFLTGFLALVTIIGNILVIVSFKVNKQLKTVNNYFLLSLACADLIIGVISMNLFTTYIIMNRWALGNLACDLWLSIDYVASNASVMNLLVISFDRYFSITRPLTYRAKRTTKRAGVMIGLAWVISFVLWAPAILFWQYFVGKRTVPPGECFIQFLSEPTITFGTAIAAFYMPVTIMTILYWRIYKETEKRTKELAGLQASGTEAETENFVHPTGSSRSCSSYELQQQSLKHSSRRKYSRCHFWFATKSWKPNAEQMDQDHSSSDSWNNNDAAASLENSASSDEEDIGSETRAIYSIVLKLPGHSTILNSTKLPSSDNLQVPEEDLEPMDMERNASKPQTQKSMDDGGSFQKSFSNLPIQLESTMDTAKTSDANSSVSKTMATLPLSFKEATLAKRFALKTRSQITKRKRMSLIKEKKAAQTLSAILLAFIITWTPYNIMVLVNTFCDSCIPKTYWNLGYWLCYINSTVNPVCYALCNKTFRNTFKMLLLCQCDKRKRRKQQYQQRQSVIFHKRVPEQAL

Question: With “3-(trans-3-(Carbamoyl(diphenyl)methyl)cyclopentyl)-1-cyclopentylmethyl-2-methyl-3H-imidazol-1-ium bromide [Example 68]” as the molecule, how does the “pA2 Trachea M3” value (muscarinic M3 receptor; isolated guinea pig trachea) read?
Answer: 9.4

Question: What about the “pA2 Left atrium M2” value (muscarinic M2 receptor; [1]) of the same molecule?
Answer: 7.4

Question: For `C[n+]1ccn([C@H]2CC[C@@H](C(C(N)=O)(c3ccccc3)c3ccccc3)C2)c1` (relative stereo) [Example 5, 3-(cis-3-(Carbamoyl(diphenyl)methyl)cyclopentyl)-1-methyl-3H-imidazol-1-ium iodide], which Kb (muscarinic M3 receptor; [2]) is on record?
Answer: 2.51 nM

Question: And the Kb (muscarinic M2 receptor; [3])?
Answer: 31.6 nM

Question: For `CCOCC[n+]1ccn([C@H]2CC[C@@H](C(C(N)=O)(c3ccccc3)c3ccccc3)C2)c1C` (relative stereo) [Example 25, 3-(cis-3-(Carbamoyl(diphenyl)methyl)cyclopentyl)-1-(2-ethoxy-ethyl)-2-methyl-3H-imidazol-1-ium bromide], which Kb (muscarinic M3 receptor; [2]) is on record?
Answer: 1.58 nM

Question: And the Kb (muscarinic M2 receptor; [3])?
Answer: 25.1 nM

Question: Which results are given for `CC(=O)OCC[n+]1ccn([C@H]2CC[C@@H](C(C(N)=O)(c3ccccc3)c3ccccc3)C2)c1C` (relative stereo) [Example 51, 3-(cis-3-(Carbamoyl(diphenyl)methyl)cyclopentyl)-1-(2-acetoxy-ethyl)-2-methyl-3H-imidazol-1-ium bromide]?
Answer: Kb (muscarinic M3 receptor; [2]): 1 nM; Kb (muscarinic M2 receptor; [3]): 31.6 nM

Question: `Cc1n([C@H]2CC[C@@H](C(C(N)=O)(c3ccccc3)c3ccccc3)C2)cc[n+]1CCCO` (relative stereo) [Example 54, 3-(cis-3-(Carbamoyl(diphenyl)methyl)cyclopentyl)-1-(3-hydroxy-propyl)-2-methyl-3H-imidazol-1-ium bromide] was tested. Which Kb (muscarinic M3 receptor; [2]) did it give?
Answer: 1 nM

Question: And the Kb (muscarinic M2 receptor; [3])?
Answer: 31.6 nM

Question: What does the source list for `Cc1n([C@H]2CC[C@H](C(C(N)=O)(c3ccccc3)c3ccccc3)C2)cc[n+]1C` (relative stereo) [Example 66, 3-(trans-3-(Carbamoyl(diphenyl)methyl)cyclopentyl)-1,2-dimethyl-3H-imidazol-1-ium iodide]?
Answer: Kb (muscarinic M3 receptor; [2]): 1.26 nM; Kb (muscarinic M2 receptor; [3]): 39.8 nM

Question: With `COCC[n+]1ccn([C@H]2CC[C@H](C(C(N)=O)(c3ccccc3)c3ccccc3)C2)c1C` (relative stereo) [Example 67, 3-(trans-3-(Carbamoyl(diphenyl)methyl)cyclopentyl)-1-(2-methoxyethyl)-2-methyl-3H-imidazol-1-ium bromide] as the molecule, how does the Kb (muscarinic M3 receptor; [2]) read?
Answer: 1.26 nM

Question: And the Kb (muscarinic M2 receptor; [3])?
Answer: 79.4 nM

Question: What does the source list for `C[n+]1cn([C@H]2CC[C@@H](C(C(N)=O)(c3ccccc3)c3ccccc3)C2)cn1` (relative stereo) [Example 69, 4-(cis-3-(Carbamoyl(diphenyl)methyl)cyclopentyl)-1-methyl-4H-[1,2,4]triazol-1-ium iodide]?
Answer: Kb (muscarinic M3 receptor; [2]): 0.794 nM; Kb (muscarinic M2 receptor; [3]): 25.1 nM

Question: How did the Kb (muscarinic M3 receptor; [2]) turn out when `NC(=O)C(c1ccccc1)(c1ccccc1)[C@@H]1CC[C@H](n2c[n+](Cc3ccccc3)cn2)C1` (relative stereo) [Example 71, 4-Benzyl-1-(cis-3-(carbamoyl(diphenyl)methyl)cyclopentyl)-1H-[1,2,4]triazol-4-ium bromide] was run?
Answer: 0.794 nM

Question: And the Kb (muscarinic M2 receptor; [3])?
Answer: 39.8 nM

Question: Which Kb (muscarinic M3 receptor; [2]) does the source give for `COCC[n+]1cn([C@H]2CC[C@@H](C(C(N)=O)(c3ccccc3)c3ccccc3)C2)cn1` (relative stereo) [Example 72, 4-(cis-3-(Carbamoyl(diphenyl)methyl)cyclopentyl)-1-(2-methoxyethyl)-4H-[1,2,4]triazol-1-ium bromide] here?
Answer: 0.794 nM

Question: And the Kb (muscarinic M2 receptor; [3])?
Answer: 31.6 nM

Question: Which results are given for `Cc1n([C@H]2CC[C@H](C(C(N)=O)(c3ccccc3)c3ccccc3)C2)cc[n+]1CCC(C)C` (relative stereo) [Example 73, 3-(trans-3-(Carbamoyl(diphenyl)methyl)cyclopentyl)-2-methyl-1-(3-methylbutyl)-3H-imidazol-1-ium bromide]?
Answer: Kb (muscarinic M3 receptor; [2]): 0.631 nM; Kb (muscarinic M2 receptor; [3]): 6.31 nM

Question: With `CC(=O)OCCC[n+]1ccn([C@H]2CC[C@H](C(C(N)=O)(c3ccccc3)c3ccccc3)C2)c1C` (relative stereo) [Example 75, 1-(3-Acetoxypropyl)-3-(trans-3-(carbamoyl(diphenyl)methyl)cyclopentyl)-2-methyl-3H-imidazol-1-ium bromide] as the molecule, how does the Kb (muscarinic M3 receptor; [2]) read?
Answer: 0.501 nM

Question: And the Kb (muscarinic M2 receptor; [3])?
Answer: 158 nM

Question: How did the Kb (muscarinic M3 receptor; [2]) turn out when `CC(=O)C[n+]1ccn([C@H]2CC[C@H](C(C(N)=O)(c3ccccc3)c3ccccc3)C2)c1C` (relative stereo) [Example 86, 3-(trans-3-(Carbamoyl(diphenyl)methyl)cyclopentyl)-2-methyl-1-(2-oxopropyl)-3H-imidazol-1-ium bromide] was run?
Answer: 1.26 nM

Question: What about the Kb (muscarinic M2 receptor; [3]) of the same molecule?
Answer: 1260 nM

Question: Which Kb (muscarinic M3 receptor; [2]) does the source give for `Cc1n([C@H]2CC[C@H](C(C#N)(c3ccccc3)c3ccccc3)C2)cc[n+]1Cc1ccccc1` (relative stereo) [Example 87, 1-Benzyl-3-(trans-3-(cyano(diphenyl)methyl)cyclopentyl)-2-methyl-3H-imidazol-1-ium bromide] here?
Answer: 1 nM

Question: And the Kb (muscarinic M2 receptor; [3])?
Answer: 50.1 nM

Question: With `CC(=O)C[n+]1ccn([C@H]2CC[C@H](C(C#N)(c3ccccc3)c3ccccc3)C2)c1C` (relative stereo) [Example 88, 3-(trans-3-(Cyano(diphenyl)methyl)cyclopentyl)-2-methyl-1-(2-oxopropyl)-3H-imidazol-1-ium bromide] as the molecule, how does the Kb (muscarinic M3 receptor; [2]) read?
Answer: 1 nM

Question: What about the Kb (muscarinic M2 receptor; [3]) of the same molecule?
Answer: 251 nM

Question: Which results are given for `Cc1n([C@H]2CC[C@H](C(C(N)=O)(c3ccccc3)c3ccccc3)C2)cc[n+]1Cc1ccccc1` (single isomer, unassigned) [Example 97, 1-Benzyl-3-(trans-3-(carbamoyl(diphenyl)methyl)cyclopentyl)-2-methyl-3H-imidazol-1-ium bromide]?
Answer: Kb (muscarinic M3 receptor; [2]): 0.1 nM; Kb (muscarinic M2 receptor; [3]): 3.98 nM

Question: What does the source list for `Cc1n([C@H]2CC[C@H](C(C(N)=O)(c3ccccc3)c3ccccc3)C2)cc[n+]1Cc1ccccc1` (single isomer, unassigned) [Example 98, 1-Benzyl-3-(trans-3-(carbamoyl(diphenyl)methyl)cyclopentyl)-2-methyl-3H-imidazol-1-ium bromide]?
Answer: Kb (muscarinic M3 receptor; [2]): 0.398 nM; Kb (muscarinic M2 receptor; [3]): 15.8 nM

Question: With `CN1[C@@H]2CC[C@H]1C[C@@H](OC(=O)C(CO)c1ccccc1)C2` (stereo partly shown) [Atropine, reference compound] as the molecule, how does the Kb (muscarinic M2 receptor; [3]) read?
Answer: 2.51 nM

Question: How did the Kb (muscarinic M3 receptor; [2]) turn out when `CC1=[N+](C)CCN1[C@@H]1CC[C@H](C(C(N)=O)(c2ccccc2)c2ccccc2)C1` [Example 57, 3-((1R,3S)-3-(Carbamoyl(diphenyl)methyl)cyclopentyl)-1,2-dimethyl-4,5-dihydro-3H-imidazol-1-ium iodide] was run?
Answer: 1.26 nM

Question: What about the Kb (muscarinic M2 receptor; [3]) of the same molecule?
Answer: 25.1 nM

Question: Which results are given for `CC1=[N+](C)CCN1[C@H]1CC[C@@H](C(C(N)=O)(c2ccccc2)c2ccccc2)C1` [Example 58, 3-((1S,3R)-3-(Carbamoyl(diphenyl)methyl)cyclopentyl)-1,2-dimethyl-4,5-dihydro-3H-imidazol-1-ium iodide]?
Answer: Kb (muscarinic M3 receptor; [2]): 3.16 nM; Kb (muscarinic M2 receptor; [3]): 79.4 nM

Question: What does the source list for `COCC[n+]1ccn([C@H]2CC[C@@H](C(C(N)=O)(c3ccccc3)c3ccccc3)C2)c1C` [Example 76, 3-((1S,3R)-3-(Carbamoyl(diphenyl)methyl)cyclopentyl)-1-(2-methoxyethyl)-2-methyl-3H-imidazol-1-ium para-toluenesulfonate]?
Answer: Kb (muscarinic M3 receptor; [4]): 1.26 nM; Kb (muscarinic M2 receptor; [5]): 200 nM

Question: Which Kb (muscarinic M3 receptor; [4]) does the source give for `COCC[n+]1ccn([C@@H]2CC[C@H](C(C(N)=O)(c3ccccc3)c3ccccc3)C2)c1C` [Example 77, 3-((1R,3S)-3-(Carbamoyl(diphenyl)methyl)cyclopentyl)-1-(2-methoxyethyl)-2-methyl-3H-imidazol-1-ium para-toluenesulfonate] here?
Answer: 0.251 nM

Question: What about the Kb (muscarinic M2 receptor; [5]) of the same molecule?
Answer: 6.31 nM

Question: With `C=C(CC)[n+]1ccn([C@H]2CC[C@@H](C(C(N)=O)(c3ccccc3)c3ccccc3)C2)c1C.[Br-]` [Example 78, 3-((1S,3R)-3-(Carbamoyl(diphenyl)methyl)cyclopentyl)-1-buten-2-yl-2-methyl-3H-imidazol-1-ium bromide] as the molecule, how does the “pA2 Trachea M3” value (muscarinic M3 receptor; isolated guinea pig trachea) read?
Answer: 9.2

Question: And the “pA2 Left atrium M2” value (muscarinic M2 receptor; [1])?
Answer: 7.9

Question: With `Cc1n([C@H]2CC[C@@H](C(C(N)=O)(c3ccccc3)c3ccccc3)C2)cc[n+]1C(F)F` [Example 81, 3-((1S,3R)-3-(Carbamoyl(diphenyl)methyl)cyclopentyl)-1-difluoromethyl-2-methyl-3H-imidazol-1-ium bromide] as the molecule, how does the Kb (muscarinic M3 receptor; [2]) read?
Answer: 1 nM
